How the values were obtained:
Glycerol kinase = target: T1, Glycerol kinase (Homo sapiens, UniProt P32189); assay: Tested for its binding affinity against glycerol kinase (ATP competitive inhibition)
T1 sequence (P32189 whole entry): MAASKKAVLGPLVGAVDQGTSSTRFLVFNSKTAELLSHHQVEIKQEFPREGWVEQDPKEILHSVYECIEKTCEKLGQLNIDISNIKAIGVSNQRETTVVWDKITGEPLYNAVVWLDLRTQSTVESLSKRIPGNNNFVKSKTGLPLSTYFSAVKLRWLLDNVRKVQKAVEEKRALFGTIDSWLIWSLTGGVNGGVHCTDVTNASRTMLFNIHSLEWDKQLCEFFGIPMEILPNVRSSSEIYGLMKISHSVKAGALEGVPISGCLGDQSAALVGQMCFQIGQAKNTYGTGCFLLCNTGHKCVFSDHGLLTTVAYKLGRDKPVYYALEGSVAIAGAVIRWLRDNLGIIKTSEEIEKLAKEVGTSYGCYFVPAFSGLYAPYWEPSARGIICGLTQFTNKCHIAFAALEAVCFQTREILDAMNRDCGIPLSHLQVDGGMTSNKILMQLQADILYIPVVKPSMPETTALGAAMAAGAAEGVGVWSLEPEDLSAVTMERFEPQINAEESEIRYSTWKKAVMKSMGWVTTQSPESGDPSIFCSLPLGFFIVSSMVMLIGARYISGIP

[1] = pKa value was evaluated; assay type: physicochemical

## Nc1ncnc2c1ncn2[C@@H]1O[C@H](COP(=O)(O)OP(=O)(O)C(F)(F)P(=O)(O)O)[C@@H](O)[C@H]1O
Glycerol kinase
  Ki: 80 µM
[1]
  pKa: 6.7

## Nc1ncnc2c1ncn2[C@@H]1O[C@H](COP(=O)(O)OP(=O)(O)NP(=O)(O)O)[C@@H](O)[C@H]1O
Glycerol kinase
  Ki: 900 µM

## Nc1ncnc2c1ncn2C1O[C@H](COP(=O)(O)OP(=O)(O)C[As](=O)(O)O)[C@@H](O)[C@H]1O (some centres undefined)
Glycerol kinase
  Ki: 2900 µM
[1]
  pKa: 9

## Nc1ncnc2c1ncn2[C@@H]1O[C@H](COP(=O)(O)OP(=O)(O)OP(=O)(O)O)[C@@H](O)[C@H]1O [ADENOSINE TRIPHOSPHATE]
Glycerol kinase
  Ki: 200 µM
[1]
  pKa: 7.1

## Nc1ncnc2c1ncn2[C@@H]1O[C@H](COP(=O)(O)OP(=O)(O)CP(=O)(O)O)[C@@H](O)[C@H]1O [PHOSPHOMETHYLPHOSPHONIC ACID ADENYLATE ESTER]
Glycerol kinase
  Ki: 300 µM
[1]
  pKa: 8.4

From ChEMBL document CHEMBL1130575, “ATP analogs with non-transferable groups in the position as inhibitors of glycerol kinase” (Bioorg Med Chem Lett, 1997)
